Measurements: US9221796B2, “Selective NR2B antagonists” (BRISTOL-MYERS SQUIBB COMPANY, priority 2014, dated 2015)
pKi: −log10 of the molar value.

Molecular target: NR2B-subtype NMDA receptors (Rattus norvegicus (Rat), UniProt P35439+Q00960)
Assay: Radioligand binding assay (3H Ro 25-6981 competition, forebrain membranes)
Details: 3H Ro 25-6981 (4 nM), read-out: NR2B Binding Ki
Method: Radioligand Binding Assay. […] Buchy D; Klingelschmidt A; Messer J; Bleuel Z; Kemp J A; Richards J G. […] Thawed brains were homogenized using a Dounce homogenizer and centrifuged at 48000×g for 20 min. The pellet was resuspended in cold buffer and homogenized again using a Dounce homogenizer. […] After incubation for 1 hr at room temperature, the membrane bound radioligand was harvested on to GF/B filter plates (treated with 0.5% PEI for 1 hr at room temperature). The filter plates were dried at 50° C. for 20 mins, incubated with microscint 20 for 10 minutes and finally, the counts were read on TopCount (Perkin Elmer). […] CPM values were converted to % inhibition and the concentration response curves were plotted using custom made software. Each experiment was repeated at least twice to obtain the final binding Ki values for experimental compounds.

Chain of NR2B-subtype NMDA receptors (Q00960 27-1482, other chains not shown): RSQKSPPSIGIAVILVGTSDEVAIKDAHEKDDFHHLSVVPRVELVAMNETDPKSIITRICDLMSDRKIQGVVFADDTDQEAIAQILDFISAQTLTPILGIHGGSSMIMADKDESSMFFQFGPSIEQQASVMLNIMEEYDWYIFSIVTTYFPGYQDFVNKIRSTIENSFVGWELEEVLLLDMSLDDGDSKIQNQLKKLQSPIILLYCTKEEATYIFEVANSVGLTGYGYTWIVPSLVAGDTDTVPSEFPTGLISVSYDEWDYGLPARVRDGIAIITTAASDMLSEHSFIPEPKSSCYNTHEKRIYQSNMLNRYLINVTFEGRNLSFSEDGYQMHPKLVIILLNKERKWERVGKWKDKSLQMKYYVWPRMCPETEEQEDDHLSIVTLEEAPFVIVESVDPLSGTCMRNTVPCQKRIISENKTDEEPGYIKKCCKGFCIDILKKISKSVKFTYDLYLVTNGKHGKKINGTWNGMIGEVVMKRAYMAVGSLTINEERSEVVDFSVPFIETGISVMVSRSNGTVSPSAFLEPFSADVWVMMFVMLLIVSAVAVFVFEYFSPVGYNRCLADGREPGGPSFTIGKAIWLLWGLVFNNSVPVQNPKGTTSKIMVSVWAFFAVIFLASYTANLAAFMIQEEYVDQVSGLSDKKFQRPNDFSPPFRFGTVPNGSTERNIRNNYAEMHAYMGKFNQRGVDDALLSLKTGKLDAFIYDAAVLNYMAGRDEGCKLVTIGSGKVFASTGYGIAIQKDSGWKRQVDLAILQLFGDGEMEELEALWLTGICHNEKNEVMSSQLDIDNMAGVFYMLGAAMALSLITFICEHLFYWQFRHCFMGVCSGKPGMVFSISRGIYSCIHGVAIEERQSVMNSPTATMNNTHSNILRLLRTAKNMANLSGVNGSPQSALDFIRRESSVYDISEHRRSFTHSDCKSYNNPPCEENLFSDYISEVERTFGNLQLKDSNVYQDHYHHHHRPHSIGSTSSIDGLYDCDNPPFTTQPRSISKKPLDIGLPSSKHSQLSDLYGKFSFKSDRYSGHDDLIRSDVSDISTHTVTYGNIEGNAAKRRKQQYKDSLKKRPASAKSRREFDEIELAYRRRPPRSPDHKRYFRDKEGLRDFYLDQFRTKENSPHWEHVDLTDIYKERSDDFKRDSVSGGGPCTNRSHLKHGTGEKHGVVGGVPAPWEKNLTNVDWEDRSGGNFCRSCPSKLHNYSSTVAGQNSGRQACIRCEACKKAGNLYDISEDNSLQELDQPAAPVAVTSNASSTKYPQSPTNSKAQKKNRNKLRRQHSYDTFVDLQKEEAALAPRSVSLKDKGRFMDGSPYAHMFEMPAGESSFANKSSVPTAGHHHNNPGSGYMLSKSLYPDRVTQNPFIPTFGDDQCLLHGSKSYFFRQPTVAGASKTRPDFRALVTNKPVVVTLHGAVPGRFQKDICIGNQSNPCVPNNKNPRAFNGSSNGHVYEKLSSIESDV

Compound | pKi
O=C1[C@@H](N2CC[C@H](c3ccc(O)cc3)[C@@H](F)C2)CCN1Cc1ccc(Cl)cc1 [Example 80, (S)-1-(4-Chlorobenzyl)-3-((3R,4R)-3-fluoro-4-(4-hydroxyphenyl)piperidin-1-yl)pyrrolidin-2-one] | 6.25
O=C1[C@@H](N2CCC(c3ccc(O)cc3)CC2)CCN1Cc1ccc(F)cc1 [Example 2a, (S)-1-(4-Fluorobenzyl)-3-(4-(4-hydroxyphenyl)-piperidin-1-yl)pyrrolidin-2-one] | 6.13
Cc1ccc(CN2CC[C@H](N3CC[C@H](c4ccc(O)c(F)c4)[C@@H](F)C3)C2=O)cc1F [Example 45, P-3, (S)-3-((3R,4R)-3-Fluoro-4-(3-fluoro-4-hydroxyphenyl)piperidin-1-yl)-1-(3-fluoro-4-methylbenzyl)pyrrolidin-2-one] | 6.42
C[C@@H](c1ccc(F)cc1)N1CC[C@H](N2CC[C@@H](c3ccc(O)cc3)[C@H](F)C2)C1=O [Example 50, P-3, (S)-3-((3S,4S)-3-Fluoro-4-(4-hydroxyphenyl)piperidin-1-yl)-1-((S)-1-(4-fluorophenyl)ethyl)pyrrolidin-2-one] | ≤ 5.30
Cc1ccc(N2CC[C@H](N3CC[C@H](c4ccc(O)cc4)[C@@H](F)C3)C2=O)cc1F [Example 49, P-1, (S)-3-((3R,4R)-3-fluoro-4-(4-hydroxyphenyl)piperidin-1-yl)-1-(3-fluoro-4-methylphenyl)pyrrolidin-2-one] | 6.38
C[C@@H](c1ccc(F)cc1)N1CCC(N2CCC(c3ccc(O)cc3)C(F)(F)C2)C1=O (single isomer, unassigned) [Example 56, P-1] | ≤ 5.30
O=C1[C@@H](N2CCC(c3ccc(O)cc3)C(F)(F)C2)CCN1Cc1ccc(Cl)cc1 (stereo partly drawn) [Example 95, P-1, (3S)-1-(4-Chlorobenzyl)-3-(3,3-difluoro-4-(4-hydroxyphenyl)piperidin-1-yl)pyrrolidin-2-one] | 7.27
C[C@@H](c1ccccc1)N1CCC(N2CCC(c3ccc(O)cc3)CC2)C1=O (stereo partly drawn) [Example 32, 3-(4-(4-Hydroxyphenyl)piperidin-1-yl)-1-((S)-1-phenylethyl)pyrrolidin-2-one] | 7.00
O=C1C(N2CCC(c3ccc(O)cc3)C(F)(F)C2)CCN1c1ccc(OC(F)F)c(Cl)c1 (stereo not drawn) [Example 90, 1-(3-Chloro-4-(difluoromethoxy)phenyl)-3-(3,3-difluoro-4-(4-hydroxyphenyl)piperidin-1-yl)pyrrolidin-2-one] | 7.11
O=C1[C@@H](N2CCC(c3ccc(O)cc3)C(F)(F)C2)CCN1Cc1ccc(C(F)(F)F)cc1 (single isomer, unassigned) [Example 99, P-1] | 6.42
Cc1ccc(CN2CC[C@@H](N3CC[C@H](c4ccc(O)cc4)[C@@H](F)C3)C2=O)cc1F [Example 47, P-4, (R)-3-((3R,4R)-3-fluoro-4-(4-hydroxyphenyl)piperidin-1-yl)-1-(3-fluoro-4-methylbenzyl)pyrrolidin-2-one] | 8.47
Cc1ccccc1CN1CCC(N2CC[C@@H](c3ccc(O)cc3)[C@H](F)C2)C1=O (stereo partly drawn) [Example 59, 3-((3S,4S)-3-Fluoro-4-(4-hydroxyphenyl)piperidin-1-yl)-1-(2-methylbenzyl)pyrrolidin-2-one] | 7.09
O=C1[C@H](N2CCC(c3ccc(O)cc3)C(F)(F)C2)CCN1Cc1ccccc1 (stereo partly drawn) [Example 102, P-2, (3R)-1-Benzyl-3-(3,3-difluoro-4-(4-hydroxyphenyl)piperidin-1-yl)pyrrolidin-2-one] | 7.52
O=C1C(N2CCCC(c3ccc(O)cc3)CC2)CCN1Cc1ccccc1 (stereo not drawn) [Example 37, 1-Benzyl-3-(4-(4-hydroxyphenyl)azepan-1-yl)pyrrolidin-2-one] | 7.68
O=C1C(N2CC[C@@H](c3ccc(O)cc3)[C@H](F)C2)CCN1Cc1ccc(Cl)c(Cl)c1 (stereo partly drawn) [Example 70, 1-(3,4-Dichlorobenzyl)-3-((3S,4S)-3-fluoro-4-(4-hydroxyphenyl)piperidin-1-yl)pyrrolidin-2-one] | 6.74
O=C1C(N2CC(c3ccc(O)cc3)C2)CCN1Cc1ccc(F)cc1 (stereo not drawn) [Example 11, 1-(4-Fluorobenzyl)-3-(3-(4-hydroxyphenyl)azetidin-1-yl)pyrrolidin-2-one] | 6.29
O=C1C(N2CCC(c3ccc(O)c(F)c3)CC2)CCN1Cc1ccccc1 (stereo not drawn) [Example 30, 1-Benzyl-3-(4-(3-fluoro-4-hydroxyphenyl)piperidin-1-yl)pyrrolidin-2-one] | 8.33
C[C@@H](c1ccc(F)cc1)N1CC[C@@H](N2CC[C@@H](c3ccc(O)cc3)[C@H](F)C2)C1=O [Example 50, P-4, (R)-3-((3S,4S)-3-fluoro-4-(4-hydroxyphenyl)piperidin-1-yl)-1-((S)-1-(4-fluorophenyl)-ethyl)pyrrolidin-2-one] | 5.89

Compound | pKi
O=C1C(N2CCC(c3ccc(O)cc3)C(F)(F)C2)CCN1Cc1ccc(OC(F)F)cc1 (stereo not drawn) [Example 105, 3-(3,3-Difluoro-4-(4-hydroxyphenyl)piperidin-1-yl)-1-(4-(difluoromethoxy)benzyl)-pyrrolidin-2-one] | 6.74
O=C1[C@H](N2CC[C@@H](c3ccc(O)cc3)[C@H](F)C2)CCN1Cc1ccc(C(F)F)cc1 [Example 114, P-1, (R)-1-(4-(difluoromethyl)benzyl)-3-((3S,4S)-3-fluoro-4-(4-hydroxyphenyl)piperidin-1-yl)pyrrolidin-2-one] | 8.46
Cc1ccc(CN2CC[C@H](N3CC[C@H](c4ccc(O)cc4)[C@@H](F)C3)C2=O)cc1F [Example 47, P-2, (S)-3-((3R,4R)-3-fluoro-4-(4-hydroxyphenyl)piperidin-1-yl)-1-(3-fluoro-4-methylbenzyl)pyrrolidin-2-one] | 6.33
O=C1C(N2CCC(c3ccc(O)cc3)C(F)(F)C2)CCN1Cc1ccc(F)c(F)c1 (stereo not drawn) [Example 97, 3-(3,3-Difluoro-4-(4-hydroxyphenyl)piperidin-1-yl)-1-(3,4-difluorobenzyl)pyrrolidin-2-one] | 7.35
Cc1ccccc1CN1CCC(N2CCC(c3ccc(O)cc3)C(F)(F)C2)C1=O (stereo not drawn) [Example 103, 3-(3,3-Difluoro-4-(4-hydroxyphenyl)piperidin-1-yl)-1-(2-methylbenzyl)pyrrolidin-2-one] | 7.09
O=C1C(N2CCCCC(c3ccc(O)cc3)C2)CCN1Cc1ccc(F)cc1 (stereo not drawn) [Example 31, 1-(4-Fluorobenzyl)-3-(3-(4-hydroxyphenyl)azepan-1-yl)pyrrolidin-2-one] | 6.10
Cc1ccc(CN2CC[C@@H](N3CC[C@@H](c4ccc(O)c(F)c4)[C@H](F)C3)C2=O)cc1F [Example 45, P-2, (R)-3-((3S,4S)-3-fluoro-4-(3-fluoro-4-hydroxyphenyl)piperidin-1-yl)-1-(3-fluoro-4-methylbenzyl)pyrrolidin-2-one] | 8.51
C[C@@H](c1ccc(F)cc1)N1CC[C@@H](N2CC[C@H](c3ccc(O)cc3)[C@@H](F)C2)C1=O [Example 50, P-2, (R)-3-((3R,4R)-3-fluoro-4-(4-hydroxyphenyl)piperidin-1-yl)-1-((S)-1-(4-fluorophenyl)ethyl)pyrrolidin-2-one] | 6.05
O=C1C(N2CCC(c3ccc(O)cc3)CC2)CCCN1Cc1ccccc1 (single isomer, unassigned) [Example 41a, 1′-Benzyl-4-(4-hydroxyphenyl)-[1,3′-bipiperidin]-2′-one] | 6.00
Cc1ccc(CN2CC[C@H](N3CC[C@@H](c4ccc(O)c(F)c4)[C@H](F)C3)C2=O)cc1F [Example 45, P-1, (S)-3-((3S,4S)-3-fluoro-4-(3-fluoro-4-hydroxyphenyl)piperidin-1-yl)-1-(3-fluoro-4-methylbenzyl)pyrrolidin-2-one] | 6.59
Cc1ccc(CN2CC[C@@H](N3CC[C@@H](c4ccc(O)cc4)[C@H](F)C3)C2=O)cc1F [Example 47, P-3, (R)-3-((3S,4S)-3-fluoro-4-(4-hydroxyphenyl)piperidin-1-yl)-1-(3-fluoro-4-methylbenzyl)pyrrolidin-2-one] | 8.42
Cc1ccc(CN2CCCC(N3CCC(c4ccc(O)cc4)CC3)C2=O)cc1F (stereo not drawn) [Example 39, 1′-(3-Fluoro-4-methylbenzyl)-4-(4-hydroxyphenyl)-[1,3′-bipiperidin]-2′-one] | 6.52
O=C1C(N2CC[C@H](c3ccc(O)cc3)[C@@H](F)C2)CCN1Cc1ccc(F)c(F)c1 (stereo partly drawn) [Example 85, 1-(3,4-Difluorobenzyl)-3-((3R,4R)-3-fluoro-4-(4-hydroxyphenyl)-piperidin-1-yl)pyrrolidin-2-one] | 7.64
O=C1[C@@H](N2CCC(c3ccc(O)cc3)C(F)(F)C2)CCN1Cc1ccccc1 (stereo partly drawn) [Example 102, P-1, (3S)-1-Benzyl-3-(3,3-difluoro-4-(4-hydroxyphenyl)piperidin-1-yl)pyrrolidin-2-one] | 6.13
O=C1[C@H](N2CC[C@@H](c3ccc(O)cc3)[C@H](F)C2)CCN1Cc1ccc(C(F)(F)F)cc1 [Example 72, (R)-3-((3S,4S)-3-Fluoro-4-(4-hydroxyphenyl)piperidin-1-yl)-1-(4-(trifluoromethyl)benzyl)-pyrrolidin-2-one] | 8.22
O=C1C(N2CCC(c3ccc(O)cc3)C(O)C2)CCN1Cc1ccc(F)cc1 (single isomer, unassigned) [Example 9b, 1-(4-Fluorobenzyl)-3-(3-hydroxy-4-(4-hydroxyphenyl)-piperidin-1-yl)pyrrolidin-2-one] | 5.85
O=C1[C@H](N2CCC(c3ccc(O)cc3)CC2)CCN1Cc1ccc(F)c(F)c1 [Example 6b, (R)-1-(3,4-Difluorobenzyl)-3-(4-(4-hydroxyphenyl)piperidin-1-yl)pyrrolidin-2-one] | 8.33
O=C1[C@@H](N2CCC(c3ccc(O)cc3)C(F)(F)C2)CCN1c1ccc(OC(F)F)c(Cl)c1 (stereo partly drawn) [Example 101, P-1, (3S)-1-(3-Chloro-4-(difluoromethoxy)phenyl)-3-(3,3-difluoro-4-(4-hydroxyphenyl)-piperidin-1-yl)pyrrolidin-2-one] | 7.89
